Measurements published in patent US20220267380A1, “Glycopeptides Increasing Lipid Synthesis” (TFCHEM, priority 2019, published 2022).

Tested on: normal human dermal fibroblasts (NHDF)
Test: Gene expression in NHDF, full transcriptome analysis with Affymetrix U219 microarray
Assay type: cell-based
Conditions: NHDF
Method: In the present study, the transcriptional effects (modulation of gene expression) of compounds 1, 2, 3 and 4 were evaluated on normal human dermal fibroblasts (NHDF) under basal conditions.
More specifically, the comparative analysis of the different transcriptomic profiles was performed using an Affymetrix GeneAtlas platform and the human “full transcriptome” U219 chip, which includes 36,000 transcripts and variants.
Fibroblasts were seeded in 24-well plates and cultured in culture medium for 24 hours. The medium was then replaced by assay medium and cells were incubated for further 24 hours. The medium was replaced by assay medium containing or not (control) the test compounds at different concentrations and the cells were preincubated for 24 hours. All experimental conditions were performed in triplicate. At the end of incubation, the culture supernatants were removed and the cells were washed in a phosphate buffered saline (PBS) solution and immediately frozen at −80° C.
Before RNA extraction, the replicates were pooled. Total RNA was extracted from each sample using TriPure Isolation Reagent® according to the supplier's instructions. The amount and quality of total RNA were evaluated for all samples using capillary electrophoresis (Bioanalyzer 2100, Agilent technologies). From each RNA, a labeled and amplified anti-sens RNA (aRNA) was obtained using GeneChip 3′IVT PLUS Kit (Affymetrix). For each labeled and amplified aRNA sample the profiles were evaluated before and after fragmentation using capillary electrophoresis (Bioanalyzer 2100, Agilent technologies). Hybridization of fragmented aRNA onto Affymetrix® U219 chip (36,000 transcripts and variants) was performed in the GeneAtlas™ fluidics Affymetrix® hybridization station for 20 hours at 45° C. U219 chip was analyzed using the GeneAtlas™ Imaging station (Affymetrix®—resolution 2 μm) to generate fluorescence intensity data.
Expression Console and Quality controls: data were normalized with the Expression Console (Affymetrix®) software using RMA algorithm. Then a quality control of the labeling and the hybridization was performed. Hybridization and labeling steps successfully passed the quality controls for these experiments.
Data reduction, Excel file description: once normalized with Expression Console, data were transferred into a Microsoft Excel® file in order to go further into data reduction.
Calculation and tools were added in order to rank and sort data, and finally to support data interpretation. Detection thresholds in terms of fold change were defined and applied on normalized data.
Results are considered and presented or commented per gene (and not probe). A probe set is a collection of probes designed to interrogate a given sequence of a gene. For data interpretation, the most important relative expression value obtained with one probe is considered to be representative of the corresponding gene. The file contains the following data: • Relative expression (RE) for each sample, • Fold change calculation, • Gene information.

[1] = relative expression adjusted to detection limit (<20), 10 mg/ml, 24 h

C[C@H](NC(=O)[C@H](C)NC(=O)[C@@H](N)CCCCNCC(F)(F)[C@]1(O)O[C@H](CO)[C@H](O)[C@H](O)[C@H]1O)C(=O)O [Compound 1]
effect of treatment of NHDF on lipid synthesis (transcriptional): up regulation of lipid and cholesterol synthesis | Fold change, ABCA1 (10 mg/ml, 24 h, vs control): 2.11 | Fold change, ABHD4 (10 mg/ml, 24 h, vs control): 2.05 | Fold change, ABHD5 (10 mg/ml, 24 h, vs control): 2.63 | Fold change, ACAT2 (10 mg/ml, 24 h, vs control): 2.12 | Fold change, AKR1C1 (10 mg/ml, 24 h, vs control): 2.13 | Fold change, AKR1C2 (10 mg/ml, 24 h, vs control): 2.60 | Fold change, CH25H (10 mg/ml, 24 h, vs control): 0.36 | Fold change, CYP51A1///LRRD1 (10 mg/ml, 24 h, vs control): 2.20 | Fold change, DHCR7 (10 mg/ml, 24 h, vs control): 3.68 | Fold change, HMGCR (10 mg/ml, 24 h, vs control): 2.02 | Fold change, HSD17B7 (10 mg/ml, 24 h, vs control): 2.44 | Fold change, HSD17B14 (10 mg/ml, 24 h, vs control): 2.00 | Fold change, IDI1 (10 mg/ml, 24 h, vs control): 2.01 | Fold change, LPIN1 (10 mg/ml, 24 h, vs control): 2.46 | Fold change, LRP8 (10 mg/ml, 24 h, vs control): 2.95 | Fold change, MSMO1 (10 mg/ml, 24 h, vs control): 2.03 | Fold change, MVD (10 mg/ml, 24 h, vs control): 2.45 | Fold change, NEU1 (10 mg/ml, 24 h, vs control): 2.74 | Fold change, PCYT2 (10 mg/ml, 24 h, vs control): 2.41 | Fold change, PLD1 (10 mg/ml, 24 h, vs control): 2.15 | Fold change, PTPLA (10 mg/ml, 24 h, vs control): 2.31 | Fold change, SOAT1 (10 mg/ml, 24 h, vs control): 2.01 | Fold change, SREBF1 (10 mg/ml, 24 h, vs control): 3.24 | Fold change, DHCR24 (10 mg/ml, 24 h, vs control, probe set 11715460_a_at): 2.05 | Fold change, POR (10 mg/ml, 24 h, vs control, probe set 11716114_x_at): 2.20 | Fold change, INSIG1 (10 mg/ml, 24 h, vs control, probe set 11716337_s_at): 2.46 | Fold change, INSIG1 (10 mg/ml, 24 h, vs control, probe set 11716338_a_at): 3.42 | Fold change, INSIG1 (10 mg/ml, 24 h, vs control, probe set 11716339_a_at): 3.38 | Fold change, HMGCS1 (10 mg/ml, 24 h, vs control, probe set 11716987_a_at): 3.15 | Fold change, APOD (10 mg/ml, 24 h, vs control, probe set 11717295_s_at): 0.30 | Fold change, LSS (10 mg/ml, 24 h, vs control, probe set 11717620_a_at): 2.08 | Fold change, EBP (10 mg/ml, 24 h, vs control, probe set 11717859_a_at): 2.68 | Fold change, FDPS (10 mg/ml, 24 h, vs control, probe set 11718366_s_at): 2.02 | Fold change, MVK (10 mg/ml, 24 h, vs control, probe set 11719098_a_at): 2.08 | Fold change, GBA///GBAP1 (10 mg/ml, 24 h, vs control, probe set 11719908_a_at): 2.93 | Fold change, LDLR (10 mg/ml, 24 h, vs control, probe set 11720028_x_at): 2.53 | Fold change, LDLR (10 mg/ml, 24 h, vs control, probe set 11720029_a_at): 2.11 | Fold change, PTGS1 (10 mg/ml, 24 h, vs control, probe set 11722208_a_at): 2.77 | Fold change, PTGS1 (10 mg/ml, 24 h, vs control, probe set 11722209_a_at): 2.62 | Fold change, PTGS1 (10 mg/ml, 24 h, vs control, probe set 11722210_a_at): 3.14 | Fold change, LSS (10 mg/ml, 24 h, vs control, probe set 11724199_x_at): 2.21 | Fold change, PGS1 (10 mg/ml, 24 h, vs control, probe set 11724792_a_at): 2.01 | Fold change, KDSR (10 mg/ml, 24 h, vs control, probe set 11730180_s_at): 2.16 | Fold change, KDSR (10 mg/ml, 24 h, vs control, probe set 11730181_s_at): 2.29 | Fold change, LSS (10 mg/ml, 24 h, vs control, probe set 11731324_a_at): 2.53 | Fold change, GBA (10 mg/ml, 24 h, vs control, probe set 11736100_a_at): 2.74 | Fold change, CHKA (10 mg/ml, 24 h, vs control, probe set 11736285_a_at): 2.27 | Fold change, CHKA (10 mg/ml, 24 h, vs control, probe set 11736286_a_at): 3.00 | Fold change, PHLDB2 (10 mg/ml, 24 h, vs control, probe set 11737039_a_at): 2.96 | Fold change, PHLDB2 (10 mg/ml, 24 h, vs control, probe set 11737041_a_at): 2.45 | Fold change, PHLDB2 (10 mg/ml, 24 h, vs control, probe set 11737042_s_at): 2.97 | Fold change, PHLDB2 (10 mg/ml, 24 h, vs control, probe set 11737043_x_at): 2.47 | Fold change, NPC1 (10 mg/ml, 24 h, vs control, probe set 11743916_a_at): 6.53 | Fold change, FADS2 (10 mg/ml, 24 h, vs control, probe set 11744899_a_at): 2.64 | Fold change, FADS2 (10 mg/ml, 24 h, vs control, probe set 11744902_a_at): 2.09 | Fold change, FADS1///MIR1908 (10 mg/ml, 24 h, vs control, probe set 11745459_a_at): 4.20 | Fold change, LPCAT3 (10 mg/ml, 24 h, vs control, probe set 11746281_a_at): 2.31 | Fold change, NPC1 (10 mg/ml, 24 h, vs control, probe set 11746723_a_at): 4.53 | Fold change, LDLR (10 mg/ml, 24 h, vs control, probe set 11746974_a_at): 2.99 | Fold change, MVK (10 mg/ml, 24 h, vs control, probe set 11747747_a_at): 2.02 | Fold change, LDLR (10 mg/ml, 24 h, vs control, probe set 11748045_x_at): 2.84 | Fold change, GBA///GBAP1 (10 mg/ml, 24 h, vs control, probe set 11748292_a_at): 2.57 | Fold change, POR (10 mg/ml, 24 h, vs control, probe set 11748368_x_at): 2.03 | Fold change, PGS1 (10 mg/ml, 24 h, vs control, probe set 11748428_a_at): 2.41 | Fold change, DHCR24 (10 mg/ml, 24 h, vs control, probe set 11749042_a_at): 2.15 | Fold change, EBP (10 mg/ml, 24 h, vs control, probe set 11749332_x_at): 2.66 | Fold change, PTGS1 (10 mg/ml, 24 h, vs control, probe set 11749730_a_at): 3.89 | Fold change, GBA (10 mg/ml, 24 h, vs control, probe set 11750975_x_at): 2.68 | Fold change, GBA (10 mg/ml, 24 h, vs control, probe set 11751085_a_at): 3.02 | Fold change, GBA (10 mg/ml, 24 h, vs control, probe set 11751086_x_at): 2.37 | Fold change, GBA///GBAP1 (10 mg/ml, 24 h, vs control, probe set 11751098_a_at): 3.03 | Fold change, GBA///GBAP1 (10 mg/ml, 24 h, vs control, probe set 11751099_x_at): 2.75 | Fold change, DHCR24 (10 mg/ml, 24 h, vs control, probe set 11751337_a_at): 2.27 | Fold change, DHCR24 (10 mg/ml, 24 h, vs control, probe set 11751338_x_at): 2.26 | Fold change, FADS1///MIR1908 (10 mg/ml, 24 h, vs control, probe set 11752670_a_at): 4.05 | Fold change, GBA///GBAP1 (10 mg/ml, 24 h, vs control, probe set 11753439_a_at): 2.64 | Fold change, GBA///GBAP1 (10 mg/ml, 24 h, vs control, probe set 11754819_x_at): 2.59 | Fold change, HMGCS1 (10 mg/ml, 24 h, vs control, probe set 11754918_s_at): 2.32 | Fold change, FADS2 (10 mg/ml, 24 h, vs control, probe set 11754939_x_at): 2.11 | Fold change, LPCAT3 (10 mg/ml, 24 h, vs control, probe set 11755123_x_at): 2.37 | Fold change, FADS1///MIR1908 (10 mg/ml, 24 h, vs control, probe set 11755251_x_at): 4.13 | Fold change, APOD (10 mg/ml, 24 h, vs control, probe set 11756065_x_at): 0.24 | Fold change, LPCAT3 (10 mg/ml, 24 h, vs control, probe set 11757008_a_at): 2.86 | Fold change, LPCAT3 (10 mg/ml, 24 h, vs control, probe set 11757009_x_at): 2.10 | Fold change, FDPS (10 mg/ml, 24 h, vs control, probe set 11758249_s_at): 2.10 | REadj2, ABCA1 [1]: 979.20 | REadj2, ABHD4 [1]: 65.43 | REadj2, ABHD5 [1]: 212.72 | REadj2, ACAT2 [1]: 1280.94 | REadj2, AKR1C1 [1]: 3725.47 | REadj2, AKR1C2 [1]: 209.16 | REadj2, CH25H [1]: 60.89 | REadj2, CYP51A1///LRRD1 [1]: 1291.92 | REadj2, DHCR7 [1]: 695.09 | REadj2, HMGCR [1]: 395.78 | REadj2, HSD17B7 [1]: 91.10 | REadj2, HSD17B14 [1]: 46.74 | REadj2, IDI1 [1]: 1244.81 | REadj2, LPIN1 [1]: 240.89 | REadj2, LRP8 [1]: 93.15 | REadj2, MSMO1 [1]: 1789.72 | REadj2, MVD [1]: 262.34 | REadj2, NEU1 [1]: 555.40
